# Assay results: US20210228590A1, “TREATING INFLUENZA USING SUBSTITUTED POLYCYCLIC PYRIDONE DERIVATIVES AND PRODRUGS THEREOF” (priority 2018, published 2021)
# Tests used:
# [1] = in vivo
# [2] = tested on: influenza A virus A/PR/8/34; test: Mouse model for delayed treatment, lethal infection: survival and body weight; assay type: in vivo, BALB/c mice
# [3] = tested on: influenza A virus A/PR/8/34; test: Mouse model for delayed treatment: virus titers in lungs; assay type: in vivo, BALB/c mice; conditions: for virus in lungs: days 8 and 10 post infection, treatment from 72 hours, limit of detection 1.50 log10 TCID50/ml
# [4] = rat, in vivo, po
smiles,measurement,setting,value
CC(=O)Oc1c2n(ccc1=O)N([C@@H]1c3ccccc3SCc3c1ccc(F)c3F)[C@@H]1COCCN1C2=O [II-4],BA(%),[1],20.0%
"COC(=O)OCOc1c2n(ccc1=O)N([C@@H]1c3ccccc3SCc3c1ccc(F)c3F)[C@@H]1COCCN1C2=O [II-6, baloxavir marboxil]",survival,"[2]; BXM 15 mg/kg orally twice daily for 5 days from 24, 48, or 72 hours post infection, observed to day 28",all mice treated with 1.5 and 15 mg/kg of BXM survived
same,survival time versus vehicle-treated group,"[2]; BXM from 24, 48, 72, and 96 hours post infection, P<0.01 or P<0.001",Significant differences in survival time
same,body weight change versus vehicle-treated group,"[2]; BXM from 24, 48, 72, or 96 hours post infection",significantly less reduction of body weight compared with the vehicle-treated group
same,body weight loss versus OSP-treated group,"[2]; BXM from 24, 48, 72 or 96 hour post infection, on indicated days",significantly less body weight loss than did the OSP-treated group
same,survival time versus OSP-treated group,"[2]; BXM given from 72 and 96 hours post infection, OSP 5 mg/kg",significantly prolonged compared with that in OSP-treated group
same,virus titers in lung versus vehicle-treated group,"[3]; BXM 1.5 and 15 mg/kg for 5 days from 72 hours post infection, days 4 and 6 post infection",significantly reduced compared with those in the vehicle-treated group
same,virus titer in lung versus OSP-treated group,"[3]; BXM 1.5 and 15 mg/kg from 72 hours post infection, days 4 and 6 post infection",significantly lower than that in the group treated with 5 mg/kg of OSP
same,virus in lungs,[3],No virus was detected
same,concentration of Compound II-6 in plasma samples,[4],a determination limit or less
"O=C1c2c(O)c(=O)ccn2N([C@@H]2c3ccccc3SCc3c2ccc(F)c3F)[C@@H]2COCCN12 [III-2, baloxavir acid]",BA(%),[1],4.2%
"CCOC(=O)C1=C[C@@H](OC(CC)CC)[C@H](NC(C)=O)[C@@H](N)C1 [OSP, Oseltamivir phosphate, reference compound]",survival time versus vehicle-treated group,[2]; OSP 5 mg/kg twice daily for 5 days from 24 or 48 hours post infection,survived for a significant longer period than the vehicle-treated group
same,protection level (survival),[2]; OSP 5 mg/kg twice daily for 5 days from 72 or 96 hours post infection,protection level was decreased
same,body weight loss versus control group,[2]; OSP from 24 and 48 hours post infection,Significant inhibitions in body weight loss
same,body weight loss versus vehicle-treated group,[2]; OSP from 72 and 96 hours post infection,body weight loss comparable to the vehicle-treated group
same,virus titers in lung versus vehicle-treated group,"[3]; OSP 5 mg/kg from 72 hours post infection, day 4 post infection",Significant reduction in virus titers
same,virus in lungs,[3],No virus was detected
